Data published in PubChem BioAssay (NCI).
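Each compound was tested at five concentrations against cells in 96-well plates for 48 hours. TGI: total growth inhibition.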

Key:
Test in all cases: NCI anticancer screen, dose series, 48 h
UACC-62 melanoma = test system: UACC-62 melanoma
NCI-H460 lung = test system: NCI-H460 lung
SN12C renal = test system: SN12C renal
SK-MEL-2 melanoma = test system: SK-MEL-2 melanoma
MOLT-4 leukemia = test system: MOLT-4 leukemia
HOP-92 NSCLC = test system: HOP-92 NSCLC
TK-10 renal = test system: TK-10 renal
MCF7 breast = test system: MCF7 breast
HL-60(TB) leukemia = test system: HL-60(TB) leukemia
UACC-257 melanoma = test system: UACC-257 melanoma
OVCAR-4 ovarian = test system: OVCAR-4 ovarian
NCI-H23 lung = test system: NCI-H23 lung
HCC-2998 colon = test system: HCC-2998 colon
IGROV1 ovarian = test system: IGROV1 ovarian
SNB-75 CNS = test system: SNB-75 CNS
LOX IMVI melanoma = test system: LOX IMVI melanoma
HCT-116 colon = test system: HCT-116 colon
A498 renal = test system: A498 renal
786-0 renal = test system: 786-0 renal
OVCAR-5 ovarian = test system: OVCAR-5 ovarian
UO-31 renal = test system: UO-31 renal
KM12 colon = test system: KM12 colon
OVCAR-8 ovarian = test system: OVCAR-8 ovarian
DU-145 prostate = test system: DU-145 prostate
NCI-H522 lung = test system: NCI-H522 lung
CAKI-1 renal = test system: CAKI-1 renal
SK-MEL-28 melanoma = test system: SK-MEL-28 melanoma
SF-295 CNS = test system: SF-295 CNS
NCI-H226 lung = test system: NCI-H226 lung
BT-549 breast = test system: BT-549 breast
SR leukemia = test system: SR leukemia
MALME-3M melanoma = test system: MALME-3M melanoma
A549 NSCLC = test system: A549 NSCLC
SK-MEL-5 melanoma = test system: SK-MEL-5 melanoma
SF-268 CNS = test system: SF-268 CNS
MDA-MB-231 breast = test system: MDA-MB-231 breast
EKVX NSCLC = test system: EKVX NSCLC
ACHN renal = test system: ACHN renal
K-562 leukemia = test system: K-562 leukemia
OVCAR-3 ovarian = test system: OVCAR-3 ovarian
PC-3 prostate = test system: PC-3 prostate
NCI/ADR-RES ovarian = test system: NCI/ADR-RES ovarian
HOP-62 NSCLC = test system: HOP-62 NSCLC
COLO 205 colon = test system: COLO 205 colon
HT29 colon = test system: HT29 colon
MDA-MB-435 = test system: MDA-MB-435
MDA-N = test system: MDA-N
T-47D breast = test system: T-47D breast
RPMI-8226 leukemia = test system: RPMI-8226 leukemia
HS 578T breast = test system: HS 578T breast
SW-620 colon = test system: SW-620 colon
SF-539 CNS = test system: SF-539 CNS
RXF 393 renal = test system: RXF 393 renal
CCRF-CEM leukemia = test system: CCRF-CEM leukemia
HCT-15 colon = test system: HCT-15 colon
SK-OV-3 ovarian = test system: SK-OV-3 ovarian
SNB-19 CNS = test system: SNB-19 CNS
U251 CNS = test system: U251 CNS
M14 melanoma = test system: M14 melanoma

`c1cc2[nH]snc2c2cncc12` showed a TGI (UACC-62 melanoma) of over 100 µM, a TGI (NCI-H460 lung) of over 100 µM and a TGI (SN12C renal) of over 100 µM. The TGI (SK-MEL-2 melanoma) was over 100 µM, the TGI (MOLT-4 leukemia) was over 100 µM and the TGI (HOP-92 NSCLC) was 85.7 µM. For the same compound, the TGI (TK-10 renal) was over 100 µM, the TGI (MCF7 breast) was over 100 µM and the TGI (HL-60(TB) leukemia) was over 100 µM. It also gave a TGI (UACC-257 melanoma) of over 100 µM, a TGI (OVCAR-4 ovarian) of over 100 µM and a TGI (NCI-H23 lung) of over 100 µM. It also gave a TGI (HCC-2998 colon) of over 100 µM, a TGI (IGROV1 ovarian) of over 100 µM and a TGI (SNB-75 CNS) of over 100 µM. For the same compound, the TGI (LOX IMVI melanoma) was over 100 µM, the TGI (HCT-116 colon) was over 100 µM and the TGI (A498 renal) was over 100 µM. For the same compound, the TGI (786-0 renal) was over 100 µM, the TGI (OVCAR-5 ovarian) was over 100 µM and the TGI (UO-31 renal) was over 100 µM. For the same compound, the TGI (KM12 colon) was over 100 µM, the TGI (OVCAR-8 ovarian) was over 100 µM and the TGI (DU-145 prostate) was over 100 µM. It also gave a TGI (NCI-H522 lung) of over 100 µM, a TGI (CAKI-1 renal) of over 100 µM and a TGI (SK-MEL-28 melanoma) of over 100 µM. For the same compound, the TGI (SF-295 CNS) was over 100 µM, the TGI (NCI-H226 lung) was over 100 µM and the TGI (BT-549 breast) was over 100 µM. The TGI (SR leukemia) was over 100 µM, the TGI (MALME-3M melanoma) was over 100 µM and the TGI (A549 NSCLC) was over 100 µM. For the same compound, the TGI (SK-MEL-5 melanoma) was over 100 µM, the TGI (SF-268 CNS) was over 100 µM and the TGI (MDA-MB-231 breast) was over 100 µM. The TGI (EKVX NSCLC) was over 100 µM, the TGI (ACHN renal) was over 100 µM and the TGI (K-562 leukemia) was over 100 µM. For the same compound, the TGI (OVCAR-3 ovarian) was over 100 µM, the TGI (PC-3 prostate) was over 100 µM and the TGI (NCI/ADR-RES ovarian) was over 100 µM. The TGI (HOP-62 NSCLC) was over 100 µM, the TGI (COLO 205 colon) was over 100 µM and the TGI (HT29 colon) was over 100 µM. The TGI (MDA-MB-435) was over 100 µM, the TGI (MDA-N) was over 100 µM and the TGI (T-47D breast) was over 100 µM. It also gave a TGI (RPMI-8226 leukemia) of over 100 µM, a TGI (HS 578T breast) of over 100 µM and a TGI (SW-620 colon) of over 100 µM. It also gave a TGI (SF-539 CNS) of over 100 µM, a TGI (RXF 393 renal) of over 100 µM and a TGI (CCRF-CEM leukemia) of over 100 µM. The TGI (HCT-15 colon) was over 100 µM and the TGI (SK-OV-3 ovarian) was over 100 µM.

Compound `CC(=O)c1cccc(Nc2c3ccccc3nc3occc23)c1` has a TGI (UACC-62 melanoma) of 27.7 µM, a TGI (NCI-H460 lung) of over 100 µM and a TGI (SN12C renal) of over 100 µM. The TGI (SK-MEL-2 melanoma) was 11.4 µM, the TGI (MOLT-4 leukemia) was 51.6 µM and the TGI (SNB-19 CNS) was over 100 µM. The TGI (HOP-92 NSCLC) was 62.2 µM, the TGI (TK-10 renal) was 94.1 µM and the TGI (MCF7 breast) was over 100 µM. The TGI (HL-60(TB) leukemia) was 12.4 µM, the TGI (UACC-257 melanoma) was 25.5 µM and the TGI (OVCAR-4 ovarian) was 6.67 µM. The TGI (NCI-H23 lung) was 18.2 µM, the TGI (HCC-2998 colon) was 25.2 µM and the TGI (IGROV1 ovarian) was 9.58 µM. For the same compound, the TGI (LOX IMVI melanoma) was over 100 µM, the TGI (HCT-116 colon) was 18.4 µM and the TGI (A498 renal) was 74.7 µM. It also gave a TGI (786-0 renal) of 27.6 µM, a TGI (OVCAR-5 ovarian) of over 100 µM and a TGI (UO-31 renal) of over 100 µM. The TGI (KM12 colon) was 52.6 µM, the TGI (OVCAR-8 ovarian) was over 100 µM and the TGI (DU-145 prostate) was over 100 µM. It also gave a TGI (NCI-H522 lung) of 4.62 µM, a TGI (CAKI-1 renal) of 8.82 µM and a TGI (SK-MEL-28 melanoma) of 7.97 µM. For the same compound, the TGI (SF-295 CNS) was 44 µM, the TGI (NCI-H226 lung) was over 100 µM and the TGI (BT-549 breast) was 54.3 µM. For the same compound, the TGI (SR leukemia) was over 100 µM, the TGI (MALME-3M melanoma) was 27.6 µM and the TGI (U251 CNS) was over 100 µM. It also gave a TGI (A549 NSCLC) of over 100 µM, a TGI (SK-MEL-5 melanoma) of 23 µM and a TGI (SF-268 CNS) of over 100 µM. It also gave a TGI (M14 melanoma) of 24.4 µM, a TGI (MDA-MB-231 breast) of 67.7 µM and a TGI (EKVX NSCLC) of over 100 µM. For the same compound, the TGI (ACHN renal) was over 100 µM, the TGI (K-562 leukemia) was over 100 µM and the TGI (OVCAR-3 ovarian) was 5.99 µM. For the same compound, the TGI (PC-3 prostate) was over 100 µM, the TGI (NCI/ADR-RES ovarian) was 6.47 µM and the TGI (HOP-62 NSCLC) was 20.6 µM. The TGI (COLO 205 colon) was 29.1 µM, the TGI (HT29 colon) was 8.46 µM and the TGI (MDA-MB-435) was 2.85 µM. It also gave a TGI (MDA-N) of over 100 µM, a TGI (T-47D breast) of 28 µM and a TGI (RPMI-8226 leukemia) of 15.9 µM. For the same compound, the TGI (HS 578T breast) was 35.3 µM, the TGI (SF-539 CNS) was 7.63 µM and the TGI (RXF 393 renal) was 6.73 µM. It also gave a TGI (CCRF-CEM leukemia) of 18.8 µM, a TGI (HCT-15 colon) of over 100 µM and a TGI (SK-OV-3 ovarian) of 36 µM.
